Assays:
[1] = biological target: Protein kinase C theta type (Homo sapiens) (UniProt Q04759); assay: Inhibition of human PKCtheta assessed as residual activity at 1 uM using 3xChocktide-PKC(19-31) as substrate in presence of 33P-ATP by ProQinase assay relative to control
[2] = biological target: T1, Ephrin type-A receptor 3 (Homo sapiens) (UniProt P29320); assay: Inhibition of human EPHA3 assessed as residual activity at 1 uM using polyEY as substrate in presence of 33P-ATP by ProQinase assay relative to control
T1 sequence (whole entry): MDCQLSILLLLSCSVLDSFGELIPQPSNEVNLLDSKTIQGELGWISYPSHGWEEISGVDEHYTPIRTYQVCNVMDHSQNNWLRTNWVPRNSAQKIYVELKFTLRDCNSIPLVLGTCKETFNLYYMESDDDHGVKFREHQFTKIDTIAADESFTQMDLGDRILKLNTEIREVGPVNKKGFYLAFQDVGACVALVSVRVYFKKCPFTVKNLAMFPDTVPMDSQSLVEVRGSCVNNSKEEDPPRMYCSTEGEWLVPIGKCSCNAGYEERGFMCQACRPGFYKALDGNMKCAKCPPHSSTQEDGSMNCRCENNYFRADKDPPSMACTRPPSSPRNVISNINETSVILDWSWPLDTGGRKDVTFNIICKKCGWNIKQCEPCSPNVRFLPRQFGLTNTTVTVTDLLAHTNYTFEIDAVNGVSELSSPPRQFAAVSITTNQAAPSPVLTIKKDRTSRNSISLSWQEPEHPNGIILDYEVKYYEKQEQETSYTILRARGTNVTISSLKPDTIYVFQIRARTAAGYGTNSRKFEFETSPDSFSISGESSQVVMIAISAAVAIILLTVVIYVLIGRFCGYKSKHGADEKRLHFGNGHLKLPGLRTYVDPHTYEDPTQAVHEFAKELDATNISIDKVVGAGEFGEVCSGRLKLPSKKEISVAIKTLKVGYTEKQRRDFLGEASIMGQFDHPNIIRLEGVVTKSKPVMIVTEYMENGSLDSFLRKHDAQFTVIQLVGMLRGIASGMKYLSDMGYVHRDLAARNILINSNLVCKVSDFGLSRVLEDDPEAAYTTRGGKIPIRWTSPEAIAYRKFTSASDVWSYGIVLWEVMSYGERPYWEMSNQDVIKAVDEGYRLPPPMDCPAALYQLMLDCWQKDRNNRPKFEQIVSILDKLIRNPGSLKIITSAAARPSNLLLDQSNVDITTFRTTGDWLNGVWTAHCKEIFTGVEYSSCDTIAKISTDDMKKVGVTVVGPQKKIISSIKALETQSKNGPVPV

[3] = biological target: Fibroblast growth factor receptor 2 (Homo sapiens) (UniProt P21802); assay: Inhibition of human FGFR2 assessed as residual activity at 1 uM using PolyEY as substrate in presence of 33P-ATP by ProQinase assay relative to control
[4] = biological target: G protein-coupled receptor kinase 3 (Homo sapiens) (UniProt P35626); assay: Inhibition of human GRK3 assessed as residual activity at 1 uM using casein as substrate in presence of 33P-ATP by ProQinase assay relative to control
[5] = biological target: Cyclin-dependent kinase 15 (Homo sapiens) (UniProt Q96Q40); assay: Inhibition of PFTAIRE2 (unknown origin) assessed as remaining activity at 1 uM by Kinome scan method relative to control
Chain of Cyclin-dependent kinase 15 (Homo sapiens) (Q96Q40 whole entry): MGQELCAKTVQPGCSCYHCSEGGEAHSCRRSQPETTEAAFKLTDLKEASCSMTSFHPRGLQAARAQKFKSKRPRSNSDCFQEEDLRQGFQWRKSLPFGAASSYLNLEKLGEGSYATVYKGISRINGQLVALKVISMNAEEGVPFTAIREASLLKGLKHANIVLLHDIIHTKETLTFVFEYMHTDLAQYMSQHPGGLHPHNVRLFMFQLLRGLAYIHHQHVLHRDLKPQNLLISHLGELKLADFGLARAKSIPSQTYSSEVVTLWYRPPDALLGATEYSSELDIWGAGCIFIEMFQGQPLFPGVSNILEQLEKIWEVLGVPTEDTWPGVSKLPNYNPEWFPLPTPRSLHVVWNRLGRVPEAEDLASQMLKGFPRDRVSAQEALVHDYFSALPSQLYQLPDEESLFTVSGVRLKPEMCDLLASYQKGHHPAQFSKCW

[6] = biological target: Serine/threonine-protein kinase VRK1 (Homo sapiens) (UniProt Q99986); assay: Inhibition of human VRK1 assessed as residual activity at 1 uM using RBER-CHKtide as substrate in presence of 33P-ATP by ProQinase assay relative to control
Chain of Serine/threonine-protein kinase VRK1 (Homo sapiens) (Q99986 whole entry, canonical isoform): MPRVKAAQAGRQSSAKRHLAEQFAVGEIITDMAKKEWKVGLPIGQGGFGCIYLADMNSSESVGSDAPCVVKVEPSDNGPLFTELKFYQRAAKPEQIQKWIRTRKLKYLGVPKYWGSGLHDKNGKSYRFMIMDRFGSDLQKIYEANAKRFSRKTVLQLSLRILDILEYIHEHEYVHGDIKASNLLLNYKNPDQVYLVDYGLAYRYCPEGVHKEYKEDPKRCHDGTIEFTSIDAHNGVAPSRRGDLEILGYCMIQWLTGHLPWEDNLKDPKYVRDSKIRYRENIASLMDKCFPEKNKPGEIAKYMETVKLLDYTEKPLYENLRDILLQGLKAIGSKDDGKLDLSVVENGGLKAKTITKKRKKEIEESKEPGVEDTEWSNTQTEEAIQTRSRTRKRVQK

[7] = biological target: Casein kinase I isoform gamma-2 (Homo sapiens) (UniProt P78368); assay: Inhibition of CSNK1G2 (unknown origin) assessed as remaining activity at 1 uM by Kinome scan method relative to control
Chain of Casein kinase I isoform gamma-2 (Homo sapiens) (P78368 whole entry, looked up, canonical isoform): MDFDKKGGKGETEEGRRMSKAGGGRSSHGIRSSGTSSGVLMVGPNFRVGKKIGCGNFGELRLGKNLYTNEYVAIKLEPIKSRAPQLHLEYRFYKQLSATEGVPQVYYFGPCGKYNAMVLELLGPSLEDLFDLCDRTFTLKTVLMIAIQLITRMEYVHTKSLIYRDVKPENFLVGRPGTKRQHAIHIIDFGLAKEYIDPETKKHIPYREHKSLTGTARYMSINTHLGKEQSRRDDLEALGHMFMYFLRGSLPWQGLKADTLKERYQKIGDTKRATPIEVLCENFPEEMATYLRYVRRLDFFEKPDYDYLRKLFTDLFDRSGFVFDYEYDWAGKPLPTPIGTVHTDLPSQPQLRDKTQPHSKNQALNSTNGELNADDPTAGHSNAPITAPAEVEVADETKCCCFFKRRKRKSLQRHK

[8] = biological target: Eukaryotic elongation factor 2 kinase (Homo sapiens) (UniProt O00418); assay: Inhibition of human EEF2K assessed as residual activity at 1 uM using RBER-GSK3 as substrate in presence of 33P-ATP by ProQinase assay relative to control
Chain of Eukaryotic elongation factor 2 kinase (Homo sapiens) (O00418 whole entry): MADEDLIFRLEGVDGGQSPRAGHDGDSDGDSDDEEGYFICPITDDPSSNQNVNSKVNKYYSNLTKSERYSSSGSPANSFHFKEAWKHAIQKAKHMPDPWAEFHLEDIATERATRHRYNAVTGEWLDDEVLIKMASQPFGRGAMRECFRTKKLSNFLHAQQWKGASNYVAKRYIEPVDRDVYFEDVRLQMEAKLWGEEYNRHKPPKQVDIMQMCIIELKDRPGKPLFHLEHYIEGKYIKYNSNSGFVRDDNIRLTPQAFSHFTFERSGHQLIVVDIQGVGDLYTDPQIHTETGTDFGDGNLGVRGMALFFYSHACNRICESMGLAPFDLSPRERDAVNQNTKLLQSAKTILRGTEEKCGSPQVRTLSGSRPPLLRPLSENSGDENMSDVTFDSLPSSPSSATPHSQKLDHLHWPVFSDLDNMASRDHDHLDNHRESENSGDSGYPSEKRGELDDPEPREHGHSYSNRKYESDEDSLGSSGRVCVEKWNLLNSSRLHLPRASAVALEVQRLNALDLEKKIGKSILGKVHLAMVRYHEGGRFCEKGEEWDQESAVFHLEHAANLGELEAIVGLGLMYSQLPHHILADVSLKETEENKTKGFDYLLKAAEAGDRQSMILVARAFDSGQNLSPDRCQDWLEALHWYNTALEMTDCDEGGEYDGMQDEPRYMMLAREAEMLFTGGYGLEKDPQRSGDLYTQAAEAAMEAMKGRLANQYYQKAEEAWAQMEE

[9] = biological target: Homeodomain-interacting protein kinase 3 (Homo sapiens) (UniProt Q9H422); assay: Inhibition of human HIPK3 assessed as residual activity at 1 uM using RBER-CHKtide as substrate in presence of 33P-ATP by ProQinase assay relative to control
[10] = biological target: LIM domain kinase 2 (Homo sapiens) (UniProt P53671); assay: Inhibition of human LIMK2 assessed as residual activity at 1 uM using CFL1 as substrate in presence of 33P-ATP by ProQinase assay relative to control
Chain of LIM domain kinase 2 (Homo sapiens) (P53671 whole entry, looked up, the tested form may be a part): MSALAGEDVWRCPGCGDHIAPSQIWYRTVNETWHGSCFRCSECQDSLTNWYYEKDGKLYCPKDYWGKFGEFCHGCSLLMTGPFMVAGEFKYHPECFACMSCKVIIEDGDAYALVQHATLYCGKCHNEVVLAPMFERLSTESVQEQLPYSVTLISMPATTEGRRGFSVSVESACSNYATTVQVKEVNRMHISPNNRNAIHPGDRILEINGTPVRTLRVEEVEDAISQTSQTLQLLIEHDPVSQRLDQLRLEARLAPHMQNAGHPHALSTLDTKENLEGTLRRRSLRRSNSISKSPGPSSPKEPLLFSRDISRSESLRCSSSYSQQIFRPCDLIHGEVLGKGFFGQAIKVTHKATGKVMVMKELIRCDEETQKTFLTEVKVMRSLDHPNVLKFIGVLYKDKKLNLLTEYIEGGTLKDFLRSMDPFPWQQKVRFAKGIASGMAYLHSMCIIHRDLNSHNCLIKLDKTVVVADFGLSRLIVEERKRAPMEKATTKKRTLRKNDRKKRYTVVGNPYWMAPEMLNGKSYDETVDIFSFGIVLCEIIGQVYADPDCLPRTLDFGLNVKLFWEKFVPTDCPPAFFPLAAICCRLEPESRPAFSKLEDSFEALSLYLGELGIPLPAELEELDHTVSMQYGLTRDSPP

[11] = biological target: Serine/threonine-protein kinase MARK2 (Homo sapiens) (UniProt Q7KZI7); assay: Inhibition of human MARK2 assessed as residual activity at 1 uM using RBER-CHKtide as substrate in presence of 33P-ATP by ProQinase assay relative to control
CYP2D6 = CYP2D6 (Homo sapiens, UniProt P10635); assay: Inhibition of CYP2D6 (unknown origin) at 10 uM relative to control; assay type: ADME
[12] = biological target: LIM domain kinase 1 (Homo sapiens) (UniProt P53667); assay: Inhibition of human LIMK1 assessed as residual activity at 1 uM using CFL2 as substrate in presence of 33P-ATP by ProQinase assay relative to control
[13] = Anti-inflammatory activity against human derived medium respond PBMC cells assessed as inhibition in stimulated IL-1alpha cytokine release incubated for 2 hrs in the presence of LPS/SEB/aCD28 by Luminex based sandwich immunoassay; assay type: functional, cell-based
[14] = biological target: Serine/threonine-protein kinase 25 (Homo sapiens) (UniProt O00506); assay: Inhibition of human STK25 assessed as residual activity at 1 uM using casein as substrate in presence of 33P-ATP by ProQinase assay relative to control
[15] = biological target: Protein kinase C zeta type (Homo sapiens) (UniProt Q05513); assay: Inhibition of human PKCzeta assessed as residual activity at 1 uM using 3xChocktide-PKC(19-31) as substrate in presence of 33P-ATP by ProQinase assay relative to control
Homo sapiens = species: Homo sapiens; assay: Inhibition of human CDK1/CycA2 assessed as residual activity at 1 uM using RBER-CHKtide as substrate in presence of 33P-ATP by ProQinase assay relative to control
[16] = biological target: Discoidin domain-containing receptor 2 (Homo sapiens) (UniProt Q16832); assay: Inhibition of DDR2 (unknown origin) assessed as remaining activity at 1 uM by Kinome scan method relative to control
Chain of Discoidin domain-containing receptor 2 (Homo sapiens) (Q16832 whole entry, the tested form may be a part): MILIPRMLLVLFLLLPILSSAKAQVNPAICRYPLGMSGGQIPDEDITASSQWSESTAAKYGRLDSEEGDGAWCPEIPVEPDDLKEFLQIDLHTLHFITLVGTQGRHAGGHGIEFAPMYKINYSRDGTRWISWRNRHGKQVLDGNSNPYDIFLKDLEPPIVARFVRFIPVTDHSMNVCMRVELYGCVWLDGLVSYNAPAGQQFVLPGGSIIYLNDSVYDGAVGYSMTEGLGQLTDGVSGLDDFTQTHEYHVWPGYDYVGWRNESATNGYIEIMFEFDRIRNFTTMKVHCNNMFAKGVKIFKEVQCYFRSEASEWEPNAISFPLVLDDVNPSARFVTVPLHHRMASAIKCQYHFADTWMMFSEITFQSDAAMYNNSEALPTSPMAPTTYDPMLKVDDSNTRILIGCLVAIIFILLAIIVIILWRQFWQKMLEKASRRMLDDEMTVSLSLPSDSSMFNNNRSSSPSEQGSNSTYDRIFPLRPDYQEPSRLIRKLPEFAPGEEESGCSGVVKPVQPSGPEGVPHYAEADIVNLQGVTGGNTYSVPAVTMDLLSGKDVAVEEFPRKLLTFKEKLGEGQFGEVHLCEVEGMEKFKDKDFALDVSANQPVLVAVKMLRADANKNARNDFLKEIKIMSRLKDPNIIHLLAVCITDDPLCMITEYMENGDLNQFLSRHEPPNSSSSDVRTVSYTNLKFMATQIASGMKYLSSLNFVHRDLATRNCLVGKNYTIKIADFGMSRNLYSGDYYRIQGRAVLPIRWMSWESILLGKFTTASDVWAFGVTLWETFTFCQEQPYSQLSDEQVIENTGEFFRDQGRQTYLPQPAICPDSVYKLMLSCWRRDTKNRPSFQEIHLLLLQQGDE

[17] = biological target: Serine/threonine-protein kinase SIK2 (Homo sapiens) (UniProt Q9H0K1); assay: Inhibition of human SNF1LK2 assessed as residual activity at 1 uM using RBER-CHKtide as substrate in presence of 33P-ATP by ProQinase assay relative to control
[18] = biological target: Serine/threonine-protein kinase MARK1 (Homo sapiens) (UniProt Q9P0L2); assay: Inhibition of human MARK1 assessed as residual activity at 1 uM using RBER-CHKtide as substrate in presence of 33P-ATP by ProQinase assay relative to control
Chain of Serine/threonine-protein kinase MARK1 (Homo sapiens) (Q9P0L2 whole entry, looked up): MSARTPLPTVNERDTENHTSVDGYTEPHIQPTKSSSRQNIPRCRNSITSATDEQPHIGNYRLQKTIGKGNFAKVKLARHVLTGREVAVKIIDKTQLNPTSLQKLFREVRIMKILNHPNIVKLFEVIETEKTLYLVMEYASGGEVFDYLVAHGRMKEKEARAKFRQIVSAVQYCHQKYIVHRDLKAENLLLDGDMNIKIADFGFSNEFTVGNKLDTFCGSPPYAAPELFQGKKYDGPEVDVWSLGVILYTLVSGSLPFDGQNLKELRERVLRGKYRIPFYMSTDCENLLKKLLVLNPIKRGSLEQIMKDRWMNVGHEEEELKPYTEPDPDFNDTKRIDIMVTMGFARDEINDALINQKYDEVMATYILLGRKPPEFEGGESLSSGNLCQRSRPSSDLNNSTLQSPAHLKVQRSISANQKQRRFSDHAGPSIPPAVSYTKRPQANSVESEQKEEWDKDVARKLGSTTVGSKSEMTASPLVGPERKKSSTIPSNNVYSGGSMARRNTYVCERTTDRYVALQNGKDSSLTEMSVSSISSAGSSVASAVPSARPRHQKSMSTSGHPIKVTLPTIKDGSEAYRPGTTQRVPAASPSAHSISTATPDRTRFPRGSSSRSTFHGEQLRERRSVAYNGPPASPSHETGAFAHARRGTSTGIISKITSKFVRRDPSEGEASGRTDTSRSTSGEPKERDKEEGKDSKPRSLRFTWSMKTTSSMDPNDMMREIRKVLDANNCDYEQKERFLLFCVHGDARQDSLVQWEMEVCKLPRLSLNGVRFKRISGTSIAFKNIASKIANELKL

Chain of Protein kinase C theta type (Homo sapiens) (Q04759 whole entry, looked up): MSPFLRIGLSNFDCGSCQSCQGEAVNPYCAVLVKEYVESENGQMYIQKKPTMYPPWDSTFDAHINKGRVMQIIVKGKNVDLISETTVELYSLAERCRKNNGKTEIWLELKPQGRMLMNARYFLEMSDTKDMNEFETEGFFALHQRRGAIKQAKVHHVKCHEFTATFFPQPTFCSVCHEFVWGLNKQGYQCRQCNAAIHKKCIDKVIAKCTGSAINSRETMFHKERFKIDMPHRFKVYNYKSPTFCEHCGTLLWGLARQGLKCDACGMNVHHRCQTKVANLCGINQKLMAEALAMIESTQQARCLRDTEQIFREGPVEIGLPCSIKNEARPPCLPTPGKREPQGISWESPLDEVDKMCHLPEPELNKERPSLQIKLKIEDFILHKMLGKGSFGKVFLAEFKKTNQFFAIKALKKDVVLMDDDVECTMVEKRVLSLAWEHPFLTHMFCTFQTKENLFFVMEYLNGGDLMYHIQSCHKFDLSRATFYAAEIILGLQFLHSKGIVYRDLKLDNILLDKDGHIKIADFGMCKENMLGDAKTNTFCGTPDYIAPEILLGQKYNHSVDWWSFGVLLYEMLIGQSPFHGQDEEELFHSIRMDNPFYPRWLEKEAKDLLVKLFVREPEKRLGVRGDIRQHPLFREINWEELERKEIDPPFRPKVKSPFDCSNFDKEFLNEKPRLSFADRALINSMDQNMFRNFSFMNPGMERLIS

For `O=C1c2ccc(Nc3ccc(F)cc3F)cc2CCc2ccc(OC[C@H](O)CO)cc21` [Skepinone-L], the Activity [1] was 99%, the Activity [2] was 107% and the Activity [3] was 125%. It also gave an Activity [4] of 95%, an Activity [5] of 85% and an Activity [6] of 88%. It also gave an Activity [7] of 100%, an Activity [8] of 88% and an Activity [9] of 91%. For the same compound, the Activity [10] was 100%, the Activity [11] was 105% and the inhibition at 10 µM (CYP2D6) was -21%. The Activity [12] was 109%, the IC50 [13] was 370 nM and the Activity [14] was 100%. It also gave an Activity [15] of 109%, an Activity (Homo sapiens) of 98% and an Activity [16] of 100%. It also gave an Activity [17] of 86% and an Activity [18] of 88%.

Reference: ChEMBL document CHEMBL5696441 (Nat Chem Biol, 2011)
